Measurements from the kinase profiling compilation of Christmann-Franck et al. (2016).
One block for each compound: values may come before it.

What was measured:
Assay in all cases: radiometric filter-binding kinase assay, Kinase HotSpot
Conditions in all cases: compound 0.5 µM; ATP 10 µM
ACVR1B (human) = ACVR1B (human) (UniProt P36896)
AURKB (human) = AURKB (human) (UniProt Q96GD4)
CAMK1D (human) = CAMK1D (human) (UniProt Q8IU85)
CDK4 CCND3 (human) = CDK4 CCND3 (human) (UniProt P30281+P11802)
CDK5 CDK5R1 p35 (human) = CDK5 CDK5R1 p35 (human) (UniProt Q00535+Q15078)
CLK1 (human) = CLK1 (human) (UniProt P49759)
CSNK2A2 (human) = CSNK2A2 (human) (UniProt P19784)
EGFR (human) = EGFR (human) (UniProt P00533)
EPHA5 (human) = EPHA5 (human) (UniProt P54756)
EPHA7 (human) = EPHA7 (human) (UniProt Q15375)
EPHB2 (human) = EPHB2 (human) (UniProt P29323)
HIPK4 (human) = HIPK4 (human) (UniProt Q8NE63)
ITK (human) = ITK (human) (UniProt Q08881)
LTK (human) = LTK (human) (UniProt P29376)
MAP2K2 (human) = MAP2K2 (human) (UniProt P36507)
MAP3K10 (human) = MAP3K10 (human) (UniProt Q02779)
MAP3K2 (human) = MAP3K2 (human) (UniProt Q9Y2U5)
MAP3K8 (human) = MAP3K8 (human) (UniProt P41279)
MAP3K9 (human) = MAP3K9 (human) (UniProt P80192)
MAP4K4 (human) = MAP4K4 (human) (UniProt O95819)
MAPKAPK2 (human) = MAPKAPK2 (human) (UniProt P49137)
MARK3 (human) = MARK3 (human) (UniProt P27448)
PASK (human) = PASK (human) (UniProt Q96RG2)
PHKG2 (human) = PHKG2 (human) (UniProt P15735)
PKN2 (human) = PKN2 (human) (UniProt Q16513)
PNCK (human) = PNCK (human) (UniProt Q6P2M8)
PRKCG (human) = PRKCG (human) (UniProt P05129)
PRKCI (human) = PRKCI (human) (UniProt P41743)
PRKCZ (human) = PRKCZ (human) (UniProt Q05513)
ROS1 (human) = ROS1 (human) (UniProt P08922)
RPS6KA4 KD2 (human) = RPS6KA4 KD2 (human) (UniProt O75676)
RPS6KB2 (human) = RPS6KB2 (human) (UniProt Q9UBS0)
STK25 (human) = STK25 (human) (UniProt O00506)
STK3 (human) = STK3 (human) (UniProt Q13188)
TAOK2 (human) = TAOK2 (human) (UniProt Q9UL54)
TEC (human) = TEC (human) (UniProt P42680)
TSSK1B (human) = TSSK1B (human) (UniProt Q9BXA7)
ULK2 (human) = ULK2 (human) (UniProt Q8IYT8)
ABL1 (human) = ABL1 (human) (UniProt P00519)
GSK3B (human) = GSK3B (human) (UniProt P49841)
MAP3K11 (human) = MAP3K11 (human) (UniProt Q16584)
MAPK10 (human) = MAPK10 (human) (UniProt P53779)

Sequence of PRKCZ (human) (Q05513 whole entry, looked up): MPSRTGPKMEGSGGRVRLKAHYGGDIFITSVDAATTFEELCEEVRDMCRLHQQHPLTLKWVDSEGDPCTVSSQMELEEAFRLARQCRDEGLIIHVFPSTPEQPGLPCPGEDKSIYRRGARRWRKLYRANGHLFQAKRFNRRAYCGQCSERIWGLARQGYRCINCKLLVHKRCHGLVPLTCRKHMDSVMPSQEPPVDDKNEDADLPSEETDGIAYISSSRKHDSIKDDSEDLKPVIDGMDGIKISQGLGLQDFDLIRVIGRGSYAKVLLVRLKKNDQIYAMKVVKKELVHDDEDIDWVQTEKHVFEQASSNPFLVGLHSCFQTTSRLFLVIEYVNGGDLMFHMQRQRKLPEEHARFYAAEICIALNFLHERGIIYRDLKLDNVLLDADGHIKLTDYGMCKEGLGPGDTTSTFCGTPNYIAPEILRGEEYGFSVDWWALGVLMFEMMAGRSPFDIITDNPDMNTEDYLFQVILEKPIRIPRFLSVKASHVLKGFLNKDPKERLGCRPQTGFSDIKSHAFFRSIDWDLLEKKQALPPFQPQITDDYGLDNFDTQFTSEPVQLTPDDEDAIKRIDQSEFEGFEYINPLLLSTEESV
Sequence of MAP3K11 (human) (Q16584 whole entry, looked up): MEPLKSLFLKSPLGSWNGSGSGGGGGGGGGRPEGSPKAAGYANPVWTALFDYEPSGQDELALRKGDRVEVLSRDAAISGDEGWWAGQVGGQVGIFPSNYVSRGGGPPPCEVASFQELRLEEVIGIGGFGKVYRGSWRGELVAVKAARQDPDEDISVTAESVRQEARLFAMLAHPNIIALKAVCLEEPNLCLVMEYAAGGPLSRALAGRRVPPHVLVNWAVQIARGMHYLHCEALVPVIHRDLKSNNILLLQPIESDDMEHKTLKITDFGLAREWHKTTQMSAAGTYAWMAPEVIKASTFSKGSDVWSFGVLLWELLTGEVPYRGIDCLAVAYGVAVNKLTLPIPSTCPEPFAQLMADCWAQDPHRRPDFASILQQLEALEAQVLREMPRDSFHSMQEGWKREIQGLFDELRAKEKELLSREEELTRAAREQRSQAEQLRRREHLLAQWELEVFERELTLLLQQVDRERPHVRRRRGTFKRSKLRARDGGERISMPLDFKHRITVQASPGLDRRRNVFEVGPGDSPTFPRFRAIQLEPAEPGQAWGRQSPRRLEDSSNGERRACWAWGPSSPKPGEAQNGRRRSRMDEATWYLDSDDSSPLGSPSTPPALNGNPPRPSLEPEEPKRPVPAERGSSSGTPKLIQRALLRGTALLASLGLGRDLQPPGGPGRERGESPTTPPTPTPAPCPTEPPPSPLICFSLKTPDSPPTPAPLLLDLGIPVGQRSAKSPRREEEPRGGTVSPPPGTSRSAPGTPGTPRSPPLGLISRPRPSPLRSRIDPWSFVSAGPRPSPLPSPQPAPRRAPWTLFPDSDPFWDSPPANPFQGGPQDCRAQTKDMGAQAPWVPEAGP
Sequence of MAPKAPK2 (human) (P49137 whole entry, looked up): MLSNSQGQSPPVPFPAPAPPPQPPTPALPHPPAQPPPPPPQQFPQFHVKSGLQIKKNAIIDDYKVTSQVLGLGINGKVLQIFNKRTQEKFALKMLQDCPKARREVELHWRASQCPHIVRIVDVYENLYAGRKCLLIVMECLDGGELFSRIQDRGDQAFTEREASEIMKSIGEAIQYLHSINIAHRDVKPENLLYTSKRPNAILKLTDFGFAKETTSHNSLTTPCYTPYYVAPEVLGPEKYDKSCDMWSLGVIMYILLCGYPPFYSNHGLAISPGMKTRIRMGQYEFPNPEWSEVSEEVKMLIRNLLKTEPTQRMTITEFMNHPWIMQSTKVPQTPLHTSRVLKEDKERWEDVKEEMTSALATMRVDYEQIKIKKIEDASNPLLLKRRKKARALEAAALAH
Sequence of EPHA5 (human) (P54756 whole entry, looked up): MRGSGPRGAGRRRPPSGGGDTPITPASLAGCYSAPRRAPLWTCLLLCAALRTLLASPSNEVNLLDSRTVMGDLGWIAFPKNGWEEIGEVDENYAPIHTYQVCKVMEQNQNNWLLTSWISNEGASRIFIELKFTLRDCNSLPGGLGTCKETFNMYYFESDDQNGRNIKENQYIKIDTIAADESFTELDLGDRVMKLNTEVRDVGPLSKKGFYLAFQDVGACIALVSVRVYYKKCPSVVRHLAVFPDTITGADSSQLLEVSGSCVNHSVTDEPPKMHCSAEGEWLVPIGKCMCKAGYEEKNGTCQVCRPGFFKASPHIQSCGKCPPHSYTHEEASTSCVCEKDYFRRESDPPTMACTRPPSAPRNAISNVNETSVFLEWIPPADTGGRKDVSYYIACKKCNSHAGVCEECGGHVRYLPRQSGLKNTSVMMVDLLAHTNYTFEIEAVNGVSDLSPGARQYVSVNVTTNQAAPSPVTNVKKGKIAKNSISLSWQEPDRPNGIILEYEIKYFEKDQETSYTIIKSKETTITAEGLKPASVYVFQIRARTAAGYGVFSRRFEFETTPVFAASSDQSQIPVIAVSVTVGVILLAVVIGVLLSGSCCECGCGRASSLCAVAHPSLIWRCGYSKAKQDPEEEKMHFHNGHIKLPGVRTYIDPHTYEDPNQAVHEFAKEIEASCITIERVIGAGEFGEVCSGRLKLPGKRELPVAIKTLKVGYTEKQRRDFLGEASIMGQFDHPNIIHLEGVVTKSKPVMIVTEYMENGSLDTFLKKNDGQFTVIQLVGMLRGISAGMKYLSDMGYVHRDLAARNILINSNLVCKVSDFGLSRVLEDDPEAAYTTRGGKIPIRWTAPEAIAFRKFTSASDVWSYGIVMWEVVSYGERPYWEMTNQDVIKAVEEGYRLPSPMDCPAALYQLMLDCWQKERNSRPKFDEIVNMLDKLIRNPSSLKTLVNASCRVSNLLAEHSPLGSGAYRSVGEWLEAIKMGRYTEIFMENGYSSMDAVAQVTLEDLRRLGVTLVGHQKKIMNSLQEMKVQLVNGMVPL
Sequence of PHKG2 (human) (P15735 whole entry, looked up): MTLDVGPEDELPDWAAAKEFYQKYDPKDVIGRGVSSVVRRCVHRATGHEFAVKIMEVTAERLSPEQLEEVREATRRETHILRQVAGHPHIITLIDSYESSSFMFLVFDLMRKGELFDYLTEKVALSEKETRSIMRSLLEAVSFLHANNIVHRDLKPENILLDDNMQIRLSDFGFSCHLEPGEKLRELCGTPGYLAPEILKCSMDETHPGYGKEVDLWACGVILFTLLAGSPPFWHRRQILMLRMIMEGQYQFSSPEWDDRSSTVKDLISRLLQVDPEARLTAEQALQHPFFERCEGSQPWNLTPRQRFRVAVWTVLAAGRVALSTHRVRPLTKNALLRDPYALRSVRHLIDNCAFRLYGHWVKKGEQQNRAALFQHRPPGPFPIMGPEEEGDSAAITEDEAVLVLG
Sequence of EGFR (human) (P00533 whole entry, looked up): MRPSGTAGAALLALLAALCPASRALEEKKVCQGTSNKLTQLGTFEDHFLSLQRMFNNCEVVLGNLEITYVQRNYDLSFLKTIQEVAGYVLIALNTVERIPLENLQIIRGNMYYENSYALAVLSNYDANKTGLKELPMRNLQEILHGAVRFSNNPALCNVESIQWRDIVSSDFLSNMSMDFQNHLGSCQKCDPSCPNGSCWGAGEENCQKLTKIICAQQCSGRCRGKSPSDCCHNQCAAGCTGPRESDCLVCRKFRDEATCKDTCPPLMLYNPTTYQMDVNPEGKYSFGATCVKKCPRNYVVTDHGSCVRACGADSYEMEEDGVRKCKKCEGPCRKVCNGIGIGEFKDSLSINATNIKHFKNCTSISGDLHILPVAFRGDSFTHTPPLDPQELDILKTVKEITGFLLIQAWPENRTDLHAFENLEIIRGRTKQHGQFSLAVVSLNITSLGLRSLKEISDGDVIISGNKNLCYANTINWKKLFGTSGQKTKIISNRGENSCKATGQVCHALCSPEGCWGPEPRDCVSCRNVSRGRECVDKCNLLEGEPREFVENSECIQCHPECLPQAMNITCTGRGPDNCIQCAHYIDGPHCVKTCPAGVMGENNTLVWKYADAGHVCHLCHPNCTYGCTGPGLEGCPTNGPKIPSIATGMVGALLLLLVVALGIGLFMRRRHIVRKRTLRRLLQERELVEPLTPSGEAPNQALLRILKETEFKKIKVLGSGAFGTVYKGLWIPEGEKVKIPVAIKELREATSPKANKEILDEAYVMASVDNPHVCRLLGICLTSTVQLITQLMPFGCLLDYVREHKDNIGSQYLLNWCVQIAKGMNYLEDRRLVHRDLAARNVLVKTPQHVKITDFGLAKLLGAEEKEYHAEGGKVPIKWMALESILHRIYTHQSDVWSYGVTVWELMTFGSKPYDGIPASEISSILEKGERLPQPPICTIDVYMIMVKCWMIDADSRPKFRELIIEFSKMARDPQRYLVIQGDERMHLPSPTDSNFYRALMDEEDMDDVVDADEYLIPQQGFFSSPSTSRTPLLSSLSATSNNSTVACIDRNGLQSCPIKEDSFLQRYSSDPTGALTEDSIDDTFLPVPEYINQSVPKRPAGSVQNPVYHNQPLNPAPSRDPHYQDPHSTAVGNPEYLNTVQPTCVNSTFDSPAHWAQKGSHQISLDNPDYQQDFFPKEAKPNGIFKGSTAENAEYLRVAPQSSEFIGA
Sequence of CLK1 (human) (P49759 whole entry, looked up): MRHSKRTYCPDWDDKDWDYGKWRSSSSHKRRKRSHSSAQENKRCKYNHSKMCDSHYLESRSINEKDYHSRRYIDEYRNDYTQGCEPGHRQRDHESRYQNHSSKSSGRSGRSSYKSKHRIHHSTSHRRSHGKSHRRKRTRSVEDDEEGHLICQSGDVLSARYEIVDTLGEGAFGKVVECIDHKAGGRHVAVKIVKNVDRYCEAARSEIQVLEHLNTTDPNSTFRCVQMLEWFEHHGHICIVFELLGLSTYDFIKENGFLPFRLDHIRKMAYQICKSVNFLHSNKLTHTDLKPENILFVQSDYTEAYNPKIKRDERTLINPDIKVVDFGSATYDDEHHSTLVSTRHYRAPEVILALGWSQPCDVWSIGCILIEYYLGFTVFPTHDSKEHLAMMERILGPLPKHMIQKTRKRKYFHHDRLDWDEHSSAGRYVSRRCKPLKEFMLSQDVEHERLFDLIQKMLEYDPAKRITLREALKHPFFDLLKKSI

Structure (SMILES): Cc1ccc(Nc2nccc(N(C)c3ccc4c(C)n(C)nc4c3)n2)cc1S(N)(=O)=O
- residual activity (ACVR1B (human)): 100%
- residual activity (AURKB (human)): 64.6%
- residual activity (CAMK1D (human)): 91.5%
- residual activity (CDK4 CCND3 (human)): 96%
- residual activity (CDK5 CDK5R1 p35 (human)): 99.3%
- residual activity (CLK1 (human)): 103%
- residual activity (CSNK2A2 (human)): 99.8%
- residual activity (EGFR (human)): 91%
- residual activity (EPHA5 (human)): 99.7%
- residual activity (EPHA7 (human)): 94.1%
- residual activity (EPHB2 (human)): 91.9%
- residual activity (HIPK4 (human)): 109%
- residual activity (ITK (human)): 115%
- residual activity (LTK (human)): 80.2%
- residual activity (MAP2K2 (human)): 94.8%
- residual activity (MAP3K10 (human)): 28.5%
- residual activity (MAP3K2 (human)): 110%
- residual activity (MAP3K8 (human)): 95.2%
- residual activity (MAP3K9 (human)): 10.6%
- residual activity (MAP4K4 (human)): 77.4%
- residual activity (MAPKAPK2 (human)): 99.6%
- residual activity (MARK3 (human)): 96.6%
- residual activity (PASK (human)): 101%
- residual activity (PHKG2 (human)): 96.7%
- residual activity (PKN2 (human)): 106%
- residual activity (PNCK (human)): 95.9%
- residual activity (PRKCG (human)): 93.5%
- residual activity (PRKCI (human)): 96.1%
- residual activity (PRKCZ (human)): 97.7%
- residual activity (ROS1 (human)): 17%
- residual activity (RPS6KA4 KD2 (human)): 102%
- residual activity (RPS6KB2 (human)): 103%
- residual activity (STK25 (human)): 97.3%
- residual activity (STK3 (human)): 95.4%
- residual activity (TAOK2 (human)): 26.8%
- residual activity (TEC (human)): 101%
- residual activity (TSSK1B (human)): 99%
- residual activity (ULK2 (human)): 102%

Structure (SMILES): CNc1cc2c(Nc3cccc(Br)c3)ncnc2cn1
- residual activity (ABL1 (human)): 89.8%
- residual activity (ACVR1B (human)): 97.7%
- residual activity (AURKB (human)): 76.3%
- residual activity (CAMK1D (human)): 92.5%
- residual activity (CDK4 CCND3 (human)): 120%
- residual activity (CDK5 CDK5R1 p35 (human)): 100%
- residual activity (CLK1 (human)): 106%
- residual activity (EGFR (human)): 1.99%
- residual activity (EPHA5 (human)): 106%
- residual activity (EPHA7 (human)): 94.6%
- residual activity (EPHB2 (human)): 91.2%
- residual activity (GSK3B (human)): 89.6%
- residual activity (HIPK4 (human)): 82.8%
- residual activity (ITK (human)): 92.5%
- residual activity (LTK (human)): 76.2%
- residual activity (MAP2K2 (human)): 90.4%
- residual activity (MAP3K10 (human)): 90.1%
- residual activity (MAP3K11 (human)): 96.9%
- residual activity (MAP3K2 (human)): 74.9%
- residual activity (MAP3K8 (human)): 90.2%
- residual activity (MAP3K9 (human)): 94.4%
- residual activity (MAP4K4 (human)): 86.9%
- residual activity (MAPK10 (human)): 96.1%
- residual activity (MAPKAPK2 (human)): 99.6%
- residual activity (MARK3 (human)): 82.2%
- residual activity (PASK (human)): 86.9%
- residual activity (PHKG2 (human)): 113%
- residual activity (PKN2 (human)): 102%
- residual activity (PNCK (human)): 100%
- residual activity (PRKCG (human)): 105%
- residual activity (PRKCI (human)): 96.4%
- residual activity (PRKCZ (human)): 98.6%
- residual activity (ROS1 (human)): 89.1%
- residual activity (RPS6KA4 KD2 (human)): 109%
- residual activity (RPS6KB2 (human)): 99.8%
- residual activity (STK25 (human)): 102%
- residual activity (STK3 (human)): 99.9%
- residual activity (TAOK2 (human)): 95.3%
- residual activity (TEC (human)): 109%
- residual activity (TSSK1B (human)): 60.2%
- residual activity (ULK2 (human)): 119%

Structure (SMILES): Nc1ncnc2[nH]nc(Nc3ccc(F)cc3)c12
- residual activity (ABL1 (human)): 88.1%
- residual activity (ACVR1B (human)): 104%
- residual activity (AURKB (human)): 96.9%
- residual activity (CAMK1D (human)): 130%
- residual activity (CDK4 CCND3 (human)): 111%
- residual activity (CDK5 CDK5R1 p35 (human)): 98.6%
- residual activity (CLK1 (human)): 102%
- residual activity (EGFR (human)): 100%
- residual activity (EPHA5 (human)): 87%
- residual activity (EPHA7 (human)): 101%
- residual activity (EPHB2 (human)): 91.6%
- residual activity (GSK3B (human)): 101%
- residual activity (HIPK4 (human)): 98.5%
- residual activity (ITK (human)): 93.9%
- residual activity (LTK (human)): 92.5%
- residual activity (MAP2K2 (human)): 90%
- residual activity (MAP3K10 (human)): 85.9%
- residual activity (MAP3K11 (human)): 93.9%
- residual activity (MAP3K2 (human)): 95.6%
- residual activity (MAP3K8 (human)): 99.7%
- residual activity (MAP3K9 (human)): 100%
- residual activity (MAP4K4 (human)): 59.4%
- residual activity (MAPK10 (human)): 100%
- residual activity (MAPKAPK2 (human)): 105%
- residual activity (MARK3 (human)): 92.5%
- residual activity (PASK (human)): 91.8%
- residual activity (PHKG2 (human)): 101%
- residual activity (PKN2 (human)): 82%
- residual activity (PNCK (human)): 98.4%
- residual activity (PRKCG (human)): 96%
- residual activity (PRKCI (human)): 91.3%
- residual activity (PRKCZ (human)): 109%
- residual activity (ROS1 (human)): 99.9%
- residual activity (RPS6KA4 KD2 (human)): 114%
- residual activity (RPS6KB2 (human)): 96.8%
- residual activity (STK25 (human)): 112%
- residual activity (STK3 (human)): 90.8%
- residual activity (TAOK2 (human)): 97.3%
- residual activity (TEC (human)): 86%
- residual activity (TSSK1B (human)): 96.4%
- residual activity (ULK2 (human)): 110%

Structure (SMILES): CCCC(=O)Oc1ccc2[nH]c(C(=O)c3cc4ccccc4[nH]3)cc2c1
- residual activity (ABL1 (human)): 100%
- residual activity (ACVR1B (human)): 98.9%
- residual activity (AURKB (human)): 97.1%
- residual activity (CAMK1D (human)): 103%
- residual activity (CDK4 CCND3 (human)): 103%
- residual activity (CDK5 CDK5R1 p35 (human)): 97.5%
- residual activity (CLK1 (human)): 99.3%
- residual activity (EGFR (human)): 95.2%
- residual activity (EPHA5 (human)): 97.7%
- residual activity (EPHA7 (human)): 97.2%
- residual activity (EPHB2 (human)): 98.4%
- residual activity (GSK3B (human)): 94%
- residual activity (HIPK4 (human)): 86.3%
- residual activity (ITK (human)): 82%
- residual activity (LTK (human)): 87.5%
- residual activity (MAP2K2 (human)): 98.7%
- residual activity (MAP3K10 (human)): 87.7%
- residual activity (MAP3K11 (human)): 98.7%
- residual activity (MAP3K2 (human)): 81.7%
- residual activity (MAP3K8 (human)): 97.6%
- residual activity (MAP3K9 (human)): 97.7%
- residual activity (MAP4K4 (human)): 97.3%
- residual activity (MAPK10 (human)): 100%
- residual activity (MAPKAPK2 (human)): 92.4%
- residual activity (MARK3 (human)): 92.1%
- residual activity (PASK (human)): 88.7%
- residual activity (PHKG2 (human)): 117%
- residual activity (PKN2 (human)): 100%
- residual activity (PNCK (human)): 99.4%
- residual activity (PRKCG (human)): 99%
- residual activity (PRKCI (human)): 99.2%
- residual activity (PRKCZ (human)): 98.3%
- residual activity (ROS1 (human)): 97%
- residual activity (RPS6KA4 KD2 (human)): 99.1%
- residual activity (RPS6KB2 (human)): 102%
- residual activity (STK25 (human)): 94.5%
- residual activity (STK3 (human)): 87%
- residual activity (TAOK2 (human)): 110%
- residual activity (TEC (human)): 97.8%
- residual activity (TSSK1B (human)): 78.1%
- residual activity (ULK2 (human)): 98.3%

- residual activity (ABL1 (human)): 89.1%
- residual activity (ACVR1B (human)): 102%
- residual activity (AURKB (human)): 19.2%
- residual activity (CAMK1D (human)): 138%
- residual activity (CDK4 CCND3 (human)): 101%
- residual activity (CDK5 CDK5R1 p35 (human)): 95.8%
- residual activity (CSNK2A2 (human)): 84.6%
- residual activity (EGFR (human)): 97.1%
- residual activity (EPHA5 (human)): 96.4%
- residual activity (EPHA7 (human)): 85.8%
- residual activity (EPHB2 (human)): 91.8%
- residual activity (GSK3B (human)): 96.1%
- residual activity (HIPK4 (human)): 103%
- residual activity (ITK (human)): 87.4%
- residual activity (LTK (human)): 45.5%
- residual activity (MAP2K2 (human)): 99.5%
- residual activity (MAP3K10 (human)): 74%
- residual activity (MAP3K11 (human)): 79.1%
- residual activity (MAP3K2 (human)): 68.5%
- residual activity (MAP3K8 (human)): 82.9%
- residual activity (MAP3K9 (human)): 95.2%
- residual activity (MAP4K4 (human)): 40.9%
- residual activity (MAPK10 (human)): 99%
- residual activity (MAPKAPK2 (human)): 104%
- residual activity (MARK3 (human)): 41.9%
- residual activity (PASK (human)): 106%
- residual activity (PHKG2 (human)): 96%
- residual activity (PKN2 (human)): 85.4%
- residual activity (PNCK (human)): 101%
- residual activity (PRKCG (human)): 94.8%
- residual activity (PRKCI (human)): 98.7%
- residual activity (PRKCZ (human)): 94.5%
- residual activity (ROS1 (human)): 69.6%
- residual activity (RPS6KA4 KD2 (human)): 109%
- residual activity (RPS6KB2 (human)): 98.4%
- residual activity (STK25 (human)): 91%
- residual activity (STK3 (human)): 78.6%
- residual activity (TAOK2 (human)): 21.9%
- residual activity (TEC (human)): 86.7%
- residual activity (TSSK1B (human)): 21.7%
- residual activity (ULK2 (human)): 16.8%
Structure (SMILES): Cc1[nH]c(/C=C2\C(=O)Nc3ccc(S(=O)(=O)N(C)c4cccc(Cl)c4)cc32)c(C)c1C(=O)N1CCN(C)CC1
